Results published in publication PMC3228837 (Journal of medicinal chemistry, 2011).

Legend:
NaV1.6 = NaV1.6 (Mus musculus, UniProt Q9WTU3); format: cell-based
NaV1.2 = NaV1.2 (Rattus norvegicus, UniProt P04775); format: cell-based
Chain of NaV1.2 (P04775 whole entry, looked up): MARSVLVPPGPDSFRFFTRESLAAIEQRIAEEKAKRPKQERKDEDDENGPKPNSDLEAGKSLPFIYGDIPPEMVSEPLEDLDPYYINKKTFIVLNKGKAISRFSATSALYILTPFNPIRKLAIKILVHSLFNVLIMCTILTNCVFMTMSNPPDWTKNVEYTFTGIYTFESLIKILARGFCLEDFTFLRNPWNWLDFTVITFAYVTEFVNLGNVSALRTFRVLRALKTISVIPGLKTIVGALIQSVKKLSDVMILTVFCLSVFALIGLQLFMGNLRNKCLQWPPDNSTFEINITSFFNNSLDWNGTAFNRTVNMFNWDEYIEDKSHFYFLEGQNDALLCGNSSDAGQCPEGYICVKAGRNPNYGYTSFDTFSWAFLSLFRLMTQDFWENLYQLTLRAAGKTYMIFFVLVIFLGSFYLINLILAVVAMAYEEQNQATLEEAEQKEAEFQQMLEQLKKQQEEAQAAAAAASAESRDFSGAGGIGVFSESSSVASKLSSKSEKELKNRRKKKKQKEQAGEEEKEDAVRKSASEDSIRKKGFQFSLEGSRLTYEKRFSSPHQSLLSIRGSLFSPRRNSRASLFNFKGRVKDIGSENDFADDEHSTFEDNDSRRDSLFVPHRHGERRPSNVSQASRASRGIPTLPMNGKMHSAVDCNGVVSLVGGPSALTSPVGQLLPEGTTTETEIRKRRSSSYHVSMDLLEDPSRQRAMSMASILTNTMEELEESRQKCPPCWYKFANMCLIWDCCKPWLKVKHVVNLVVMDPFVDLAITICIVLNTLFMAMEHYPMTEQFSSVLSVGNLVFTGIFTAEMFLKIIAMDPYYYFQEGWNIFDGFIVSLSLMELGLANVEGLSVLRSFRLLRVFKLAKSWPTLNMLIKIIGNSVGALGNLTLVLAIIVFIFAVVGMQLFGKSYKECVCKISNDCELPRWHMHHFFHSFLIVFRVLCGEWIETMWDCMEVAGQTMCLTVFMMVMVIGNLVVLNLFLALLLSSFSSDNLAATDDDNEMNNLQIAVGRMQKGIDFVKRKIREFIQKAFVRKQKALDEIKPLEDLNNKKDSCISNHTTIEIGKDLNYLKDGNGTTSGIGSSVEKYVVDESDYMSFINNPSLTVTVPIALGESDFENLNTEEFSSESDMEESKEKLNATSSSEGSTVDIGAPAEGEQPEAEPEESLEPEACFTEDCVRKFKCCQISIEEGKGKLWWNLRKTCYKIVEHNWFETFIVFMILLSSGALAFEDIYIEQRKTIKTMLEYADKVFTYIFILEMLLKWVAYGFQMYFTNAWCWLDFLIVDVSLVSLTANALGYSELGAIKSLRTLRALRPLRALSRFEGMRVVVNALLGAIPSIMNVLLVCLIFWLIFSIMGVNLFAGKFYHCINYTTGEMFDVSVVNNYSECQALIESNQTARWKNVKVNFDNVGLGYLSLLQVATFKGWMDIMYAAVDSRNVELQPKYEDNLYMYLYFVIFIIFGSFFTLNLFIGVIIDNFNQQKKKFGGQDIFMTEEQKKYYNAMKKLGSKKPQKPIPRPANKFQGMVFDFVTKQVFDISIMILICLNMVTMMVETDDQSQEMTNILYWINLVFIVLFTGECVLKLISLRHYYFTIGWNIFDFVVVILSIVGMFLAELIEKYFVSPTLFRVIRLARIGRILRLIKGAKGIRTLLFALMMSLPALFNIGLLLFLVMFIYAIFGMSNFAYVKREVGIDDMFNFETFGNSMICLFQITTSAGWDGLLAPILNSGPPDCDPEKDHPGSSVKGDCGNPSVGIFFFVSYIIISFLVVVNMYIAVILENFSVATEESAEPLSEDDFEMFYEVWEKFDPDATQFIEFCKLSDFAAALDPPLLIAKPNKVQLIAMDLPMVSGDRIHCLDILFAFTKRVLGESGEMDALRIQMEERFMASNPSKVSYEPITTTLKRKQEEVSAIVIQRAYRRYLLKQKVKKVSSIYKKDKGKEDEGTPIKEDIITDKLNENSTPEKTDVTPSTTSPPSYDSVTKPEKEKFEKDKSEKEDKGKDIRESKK

Chain of NaV1.6 (Q9WTU3 whole entry, looked up): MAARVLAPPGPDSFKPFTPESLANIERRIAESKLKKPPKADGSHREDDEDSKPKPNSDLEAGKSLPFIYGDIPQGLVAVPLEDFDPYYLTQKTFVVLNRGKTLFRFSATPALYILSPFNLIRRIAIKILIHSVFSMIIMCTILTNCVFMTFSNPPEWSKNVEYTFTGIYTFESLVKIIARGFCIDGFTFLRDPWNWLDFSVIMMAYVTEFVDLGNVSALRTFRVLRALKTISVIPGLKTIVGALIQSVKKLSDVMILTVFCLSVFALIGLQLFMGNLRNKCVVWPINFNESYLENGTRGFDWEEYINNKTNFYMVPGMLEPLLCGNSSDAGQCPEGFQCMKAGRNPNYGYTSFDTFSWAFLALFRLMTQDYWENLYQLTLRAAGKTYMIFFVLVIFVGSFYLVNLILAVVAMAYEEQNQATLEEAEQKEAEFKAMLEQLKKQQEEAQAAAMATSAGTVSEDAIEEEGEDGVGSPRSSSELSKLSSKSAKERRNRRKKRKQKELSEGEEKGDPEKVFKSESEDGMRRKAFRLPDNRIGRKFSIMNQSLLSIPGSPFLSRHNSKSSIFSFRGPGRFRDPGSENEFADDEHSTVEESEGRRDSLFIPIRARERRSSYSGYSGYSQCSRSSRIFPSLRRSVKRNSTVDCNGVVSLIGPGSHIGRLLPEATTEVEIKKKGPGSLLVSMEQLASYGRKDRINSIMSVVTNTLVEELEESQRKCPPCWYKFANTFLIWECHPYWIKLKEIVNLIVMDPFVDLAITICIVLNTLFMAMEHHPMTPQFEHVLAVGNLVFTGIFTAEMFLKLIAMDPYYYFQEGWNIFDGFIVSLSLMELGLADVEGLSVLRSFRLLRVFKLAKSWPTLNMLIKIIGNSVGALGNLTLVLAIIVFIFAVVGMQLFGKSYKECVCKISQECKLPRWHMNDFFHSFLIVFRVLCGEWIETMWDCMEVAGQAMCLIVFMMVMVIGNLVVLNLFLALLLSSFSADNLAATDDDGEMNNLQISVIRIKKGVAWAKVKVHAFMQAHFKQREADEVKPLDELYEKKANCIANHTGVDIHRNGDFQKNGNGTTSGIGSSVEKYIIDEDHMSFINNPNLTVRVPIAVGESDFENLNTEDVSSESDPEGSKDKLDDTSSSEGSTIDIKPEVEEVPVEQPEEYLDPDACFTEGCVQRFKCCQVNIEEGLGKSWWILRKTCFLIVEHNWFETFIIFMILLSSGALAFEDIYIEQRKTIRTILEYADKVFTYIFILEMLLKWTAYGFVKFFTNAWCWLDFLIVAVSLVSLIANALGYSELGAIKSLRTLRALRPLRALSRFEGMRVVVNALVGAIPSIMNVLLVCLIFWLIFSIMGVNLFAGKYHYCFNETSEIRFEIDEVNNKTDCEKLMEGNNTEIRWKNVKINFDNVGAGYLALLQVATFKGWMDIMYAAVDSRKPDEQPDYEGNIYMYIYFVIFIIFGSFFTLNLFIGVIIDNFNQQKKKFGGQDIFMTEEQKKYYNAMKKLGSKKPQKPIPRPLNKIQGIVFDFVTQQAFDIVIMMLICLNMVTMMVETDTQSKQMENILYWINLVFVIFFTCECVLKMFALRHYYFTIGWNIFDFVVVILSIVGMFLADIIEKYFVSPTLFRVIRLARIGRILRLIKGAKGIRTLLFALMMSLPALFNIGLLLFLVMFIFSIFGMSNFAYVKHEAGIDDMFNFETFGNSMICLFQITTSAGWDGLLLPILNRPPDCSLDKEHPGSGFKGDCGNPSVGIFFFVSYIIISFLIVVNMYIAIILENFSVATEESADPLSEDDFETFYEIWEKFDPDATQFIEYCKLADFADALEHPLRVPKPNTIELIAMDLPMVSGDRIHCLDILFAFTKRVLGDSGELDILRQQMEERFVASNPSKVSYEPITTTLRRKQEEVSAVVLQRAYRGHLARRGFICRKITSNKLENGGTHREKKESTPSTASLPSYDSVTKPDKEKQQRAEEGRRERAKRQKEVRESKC

Substance: Ac-DSKWKRDHSR-NH2 [Peptide D5K9]
- % block of NaV1.6 (NaV1.6): 36.0 ± 0.7%
- % block of NaV1.2 (NaV1.2): 33.1 ± 0.9%
